The structures appear in SMILES notation. Read-outs that look alike come from different tables or passages of the source.

In data set [1] the test system is rats with mixed hyperlipidemia. Description: Levels of TC and TG in the liver of rats with mixed hyperlipidemia, Example 6. Type of data set: in vivo. The settings on record: two weeks; for TC / TG: liver, high-fat diet; for effect on TC in liver / effect on TG in liver: low, medium, high doses of the ester, atorvastatin calcium 10 mg/kg, vs hyperlipidemia model group. As for the experimental part: (§1) Feeding rats with high-fat feed containing cholesterol, sucrose, lard, and sodium cholate can form a rat model of lipid metabolism disorders, and then the rats are administrated with drug, detect the effect of the test object on hyperlipidemia, and determine the effect of the test object on the lipid absorption, lipoprotein formation, lipid degradation or excretion in rats.
(§2) Second random grouping: After the establishment of the rat hyperlipidemia model, the blood lipids of the rats were measured, and rats in the hyperlipidemia model group were randomly divided into five groups, 11 rats in the positive drug group, 10 rats in each of the other groups. The five groups were the hyperlipidemia model group, the low-dose test object group (emodin succinyl ethyl ester in a dose of 10 mg/kg·d^−1), the medium-dose test object group (emodin succinyl ethyl ester in a dose of 20 mg/kg·d^−1), the high-dose test object group (emodin succinyl ethyl ester in a dose of 40 mg/kg·d^−1), and the positive control drug group (Atorvastatin calcium group in a dose of 10 mg/kg·d^−1), respectively.
(§3) The rats in the successfully grouped high-dose test object, medium-dose, and low-dose groups and positive control drug group (atorvastatin calcium group) were intragastrically administered daily. Rats in the blank control group and the hyperlipidemia model group were given corresponding doses of lysozyme.
(§4) Feeding conditions remained unchanged. The rats were weighed once a week. Blood were collected at the tip of the tail two weeks after drug administration and livers were taken, to determine the levels of TC, TG, LDL-C, and HDL-C in serum of the rats and the levels of TC and TG in the liver, and then the effect of the test object on the TC, TG, LDL-C and HDL-C in serum of the rats and the TC and TG in liver were observed.
(3) TC and TG in liver, measured after sampling

Data set [2] concerns rats with mixed hyperlipidemia. In words: Blood lipid levels in rats with mixed hyperlipidemia (high-fat feed), Example 6. The format is in vivo. The settings on record: two weeks; for effect on TG in serum: high dose of the ester; for effect on TG in serum / effect on LDL-C in serum / effect on TC in serum: atorvastatin calcium 10 mg/kg, vs hyperlipidemia group; for effect on LDL-C in serum / effect on TC in serum: low, medium, high doses of the ester; for LDL-C / TC / TG: serum, high-fat diet. As to the method:
as §1, §2
In the experimental groups, rats in the blank control group were fed with maintenance feed and the remaining 5 groups were fed with high-fat diet. After 2 weeks, the levels of TG, TC, LDL-C and HDL-C in the serum of the rats were measured. The rats were weighed once a week.
as §3, §4

Data set [3] deals with oleic acid-induced hyperlipemia cells (HepG2 cell line). Description: Levels of TC and TG in oleic acid-induced hyperlipemia cells. The settings on record: for TC / TG: HepG2, oleic acid 200 μmol/L, 24 hours. The format is cell-based. As to the method:
Oleic acid is added to culture HepG2 cells to induce a hyperlipemia cell model, and then the cells are given a test drug, the effect of the test object on the lipid level of the cells is detected.
When the degree of cell fusion reached about 80%, except for the normal group, cells in other groups were all added with oleic acid at a dose of 200 μmol/L, and then the cells were divided into five groups: the normal group, the oleic acid-induced hyperlipemia group, low-dose emodin succinyl ethyl ester group (5 μmol/L), the medium-dose emodin succinyl ethyl ester group (10 μmol/L) and the high dose emodin succinyl ethyl ester group (20 μmol/L). 24 hours later, the levels of TC and TG were measured.
The cells were digested with 0.25% trypsin to prepare a cell suspension; the cell suspension was centrifuged at 1000 rpm for 10 minutes; the supernatant was discarded, and the cell pellet was collected, washed with PBS once or twice, and configured at 1000 rpm for 10 minutes; the supernatant was discarded, and the cell pellet was collected.
200 μl of 2% TritonX-100 was added for lysis for 30 minutes.
First, the protein concentration of the sample was determined using the Beyotime kit. Then, 250 μl of working solution was added to a 96-well plate, 2.5 μl of distilled water was added to the blank wells, 2.5 μl of calibration solution was added to the calibration wells, 2.5 μl of sample was added to the sample wells, and they were all incubated for 10 minutes at 37° C. The OD values were measured by using a 510 nm microplate reader.
3.2.4 Calculation Formulas: Cholesterol content=(sample OD value−blank OD value)/(calibrated OD value−blank OD value)*5.17/protein concentration of the sample to be tested Triglyceride content=(sample OD value−blank OD value)/(calibrated OD value−blank OD value)*2.26/protein concentration of the sample to be tested.

The test system of data set [4] is skin wound of mice with type 1 diabetes. Description: Wound healing of mice with diabetes (STZ model, 5 mm skin punch wound). The settings on record: 100 μg/mL oil, 10 μL dripped on the wound once a day, 14 days; vs diabetes model, solvent control and emodin groups. Type of data set: in vivo, Kunming mice. As for the experimental part: SPF-grade male Kunming mice (18-20 g) were adaptively fed with ordinary maintenance feed for 3-5 days, weighed and randomly divided into a blank control group (Control) and a diabetes model group. Mice in the diabetes model group were administrated with high-dose STZ (streptozotocin, 180 mg/kg) through intraperitoneal injection and fasting blood glucose was measured after one week. The mice successfully modeled were randomly divided into 5 groups, namely, the diabetes model group (Model), the solvent control group (Solvent), the positive drug (recombinant human epidermal growth factor) control group (EGF), the emodin group (DHS), and the emodin succinyl ethyl ester group (DHS-YSW).
Animals in each group were anesthetized with sodium pentobarbital (1%) and shaved on the back. A 5 mm skin punch was used to establish a 5 mm wound model at the highest part of the back. The Control group and the Model group were not treated with any drugs. The solvent control group was dripped with 10 μL of sterile vegetable oil. The positive drug group was dripped with 10 μL of recombinant human epidermal factor solution (2000 IU/mL) each day. The other groups were dripped on the wound with 10 μL of a corresponding drug, once a day for 14 consecutive days. […]
The experimental data were expressed as mean±standard error. […] The experimental results were all analyzed and graphed using GraphpadPrism6.0.

Data set [5] deals with rats with mixed hyperlipidemia. In words: Comparison of emodin succinyl ethyl ester and emodin in lowering blood lipid levels in rats with mixed hyperlipidemia, Example 7. The format is in vivo. As to the method:
Feeding rats with high-fat feed containing cholesterol, sucrose, lard and sodium cholate can form a rat model of lipid metabolism disorders and then the rats are administered with a drug, detect the effects of the test object on hyperlipidemia, and determine the effect of the test object on the lipid absorption, lipoprotein formation, lipid degradation or excretion in rats.
Second random grouping: After the establishment of the rat hyperlipidemia model, the blood lipids of the rats were measured, and rats in the hyperlipidemia model group were randomly divided into four groups, 11 rats in the positive drug group, 10 rats in each of the other groups. The four groups were the hyperlipidemia model group, the low-dose test object (emodin succinyl ethyl ester in a dose of 20 mg/kg·d^−1) group, the emodin (20 mg/kg·d^−1) group, and the positive control drug (Atorvastatin calcium group in a dose of 10 mg/kg·d^−1) group, respectively.
In the experimental groups, rats in the blank control group were fed with maintenance feed and the remaining 4 groups were fed with a high-fat diet. After 2 weeks, the levels of TG, TC, LDL-C and HDL-C in the serum of the rats were measured. The rats were weighed once a week.
The rats in the successfully grouped test object (emodin succinyl ethyl ester) group, emodin group and positive control drug group (atorvastatin calcium group) were intragastrically administered daily. Rats in the blank control group and the hyperlipidemia model group were given corresponding doses of lysozyme.
Feeding conditions remained unchanged. The rats were weighed once a week. Blood were collected at the tip of the tail two weeks after drug administration. The effect of the test object on the TC, TG, LDL-C and HDL-C in serum of the rats were observed.

For data set [6] the following is noted: cited from earlier work.
Where [7] appears, read: 10 mg/kg intragastrically once a day.
The mark [8] stands for this setting: low, medium and high doses (5, 10, 20 μmol/L), vs oleic acid group.
[9] abbreviates: 20 mg/kg intragastrically once a day.
Setting [10] is: 40 mg/kg intragastrically once a day.
Setting [11] is: 20 mg/kg·d^−1, two weeks, vs hyperlipidemia group.
The mark [12] stands for this setting: 20 mg/kg·d^−1 vs equivalent dose of emodin (20 mg/kg·d^−1), two weeks.

Turning to `CC(C)c1c(C(=O)Nc2ccccc2)c(-c2ccccc2)c(-c2ccc(F)cc2)n1CC[C@@H](O)C[C@@H](O)CC(=O)[O-].CC(C)c1c(C(=O)Nc2ccccc2)c(-c2ccccc2)c(-c2ccc(F)cc2)n1CC[C@@H](O)C[C@@H](O)CC(=O)[O-].[Ca+2]` [Atorvastatin calcium, reference compound], in data set [1] (setting [7]), the TC is recorded as 0.066 ± 0.004 mmol/L and the TG is listed as 0.090 ± 0.008 mmol/L. In data set [1], the “effect on TC in liver” value is on record as “reduce” and the “effect on TG in liver” value is reported as “reduce”. Moreover, in data set [2], the “effect on TG in serum” value is “significantly reduce”, the “effect on LDL-C in serum” value is reported as “significantly reduce” and the “effect on TC in serum” value is given as “significantly reduce”. In data set [2] (setting [7]), the LDL-C was found to be 0.13 ± 0.03 mmol/L, the TC was 2.82 ± 1.02 mmol/L and the TG is 2.94 ± 0.20 mmol/L.

As to `CCOC(=O)CCC(=O)Oc1cc(O)c2c(c1)C(=O)c1cc(C)cc(O)c1C2=O` [emodin succinyl ethyl ester, 1,8-dihydroxy-3-succinic acid monoethyl group-6-Methylanthraquinone], the TC in data set [3] (5 μmol/L) was 0.730 ± 0.168 mmol/L; in data set [3] (10 μmol/L), 0.506 ± 0.197^###& mmol/L; in data set [3] (20 μmol/L), 0.537 ± 0.145^###&& mmol/L; in data set [1] (setting [7]) it was 0.069 ± 0.010 mmol/L; in data set [1] (setting [9]) it was 0.078 ± 0.010 mmol/L; in data set [1] (setting [10]) it was 0.059 ± 0.005 mmol/L. For the same molecule, the TC in data set [2] (setting [7]) came out at 2.60 ± 0.74 mmol/L; in data set [2] (setting [9]), 2.36 ± 0.78 mmol/L; in data set [2] (setting [10]), 2.88 ± 0.34 mmol/L. The TG in data set [3] (5 μmol/L) was found to be 0.610 ± 0.308 mmol/L; in data set [3] (10 μmol/L) it was 0.487 ± 0.347 mmol/L; in data set [3] (20 μmol/L), 0.414 ± 0.209 mmol/L; in data set [1] (setting [7]), 0.105 ± 0.023 mmol/L; in data set [1] (setting [9]), 0.127 ± 0.016 mmol/L; in data set [1] (setting [10]), 0.079 ± 0.011 mmol/L. Also, the TG in data set [2] (setting [7]) was 3.98 ± 0.63 mmol/L; in data set [2] (setting [9]), 4.12 ± 0.37 mmol/L; in data set [2] (setting [10]) it was 3.23 ± 0.12 mmol/L. For the same molecule, the “effect on level of TC of cells” value in data set [3] (setting [8]) was “significantly reduce”. Moreover, in data set [3] (setting [8]), the “effect on level of TG of cells” value was “significantly reduce”. For the same molecule, the wound healing speed result in data set [4] is on record as “significantly faster wound healing speed”. The “effect on TC in liver” value in data set [1] is reported as “reduce”. Moreover, the “effect on TG in liver” value in data set [1] is listed as “reduce”. Moreover, in data set [2], the “effect on TG in serum” value is recorded as “significantly reduce”. The “effect on LDL-C in serum” value in data set [2] and in data set [5] (setting [11]) was “significantly reduce” throughout. For the same molecule, the “effect on TC in serum” value in data set [2] and in data set [5] (setting [11]) was “significantly reduce” each time. Moreover, the results for the LDL-C in data set [2] (setting [7]), in data set [2] (setting [9]) and in data set [2] (setting [10]) were 0.17 ± 0.08 mmol/L, 0.15 ± 0.05 mmol/L and 0.18 ± 0.03 mmol/L, respectively. Moreover, the “lowering LDL-C in serum compared with emodin” value in data set [5] (setting [12]) is given as “better effects”. The “lowering TC in serum compared with emodin” value in data set [5] (setting [12]) is recorded as “better effects”.

With `Cc1cc(O)c2c(c1)C(=O)c1cc(O)cc(O)c1C2=O` [emodin, 1,3,8-trihydroxy-6-methylanthraquinone], the results for the absolute bioavailability in data set [6] (female SD rats) and in data set [6] (male SD rats) were 5% and 7.5%, respectively.

The record behind these values is patent US11254635B2, “Emodin succinyl ester compound, preparation method therefor and application thereof” (JIANGSU KANION PHARMACEUTICAL CO., LTD., priority 2017, dated 2022).
